{"source": "paper PMC10305181", "about": "“A VEGFB-Based Peptidomimetic Inhibits VEGFR2-Mediated PI3K/Akt/mTOR and PLCγ/ERK Signaling and Elicits Apoptotic, Antiangiogenic, and Antitumor Activities” (Pharmaceuticals, 2023)", "key": {"[1]": {"assay": "body weight / tolerability of treated 4T1 tumor-bearing mice", "assay_type": "in vivo", "details": "0.2 mg·kg^−1 i.v. once every 2 days", "description": "Figure 2 Loop formation is important for the antitumor activity of VGB3. (A) To investigate the efficacy of VGB3 peptides in vivo 13 days after transplantation of a 4T1 murine MCT into female BALB/c mice (the tumor volume ~150 mm^3), the treatment groups received 0.2 mg·kg^−1 (once every 2 days, i.v.) of either the C-VGB3 or L-VGB3 and the control group received PBS for 20 days. Error bars denote ± SEM. n = 6; **** p < 0.0001, ns = not significant; two-way ANOVA. (B) Investigation of C-VGB3 and L-VGB3 effects on mice weight. […] (C,D) Immunohistochemical (IHC) analyses of CD31 and Ki67 for the C-VGB3-, L-VGB3- and PBS-treated tumors. For IHC staining, the sections of tumor tissues were incubated with the primary mouse monoclonal antibodies for CD31 (1:2000 (v/v)) and Ki67 (5 µg·mL^−1). […] Photographs were taken at 40× magnification. Error bars denote ± SEM. n = 3; * 0.02 ≤ p ≤ 0.04, ns = not significant; one-way ANOVA.\nThe antitumor efficacy of the peptides was investigated as described previously. Thirteen days after implanting, tumor (~150 mm^3)-bearing mice were grouped randomly into control and treated animals (6/group). From day 13 to day 33, the treatment group received cyclic or linear VGB3 (0.2 mg·kg^−1), whereas the control group received an equal volume of PBS (i.v., once every two days). The volume of tumors was calculated as 0.52 × length × width^2. In addition, changes in the weight of animals were recorded every 2 days."}, "HUVECs [2]": {"test_system": "HUVECs", "assay": "Annexin V/PI flow cytometry, HUVECs", "assay_type": "cell-based, human", "details": "0.40 μM, 24 h, VEGF 20 ng·mL^−1; control 9.61; n = 3; p < 0.0001; in % (unit assumed)", "description": "An important consequence of VEGF signals is cell survival dominantly via PI3K/AKT/mTOR pathway. Thus, inhibition of VEGF signals leads to the induction of apoptosis. Accordingly, the ability of C-VGB3 to induce apoptosis was investigated. First, apoptotic endothelial and tumor cells were analyzed by flow cytometry after staining with annexin V-FITC and PI. (Figure 6A). Treatment with C-VGB3 (0.40 μM) induced significant apoptosis in both cell lines compared to the controls. […] Apoptosis induction by C-VGB3 was further characterized by the TUNEL assay, as an indicator of late apoptosis, with a confocal microscope (Figure 6B).\nAnnexin V/Propidium Iodide flow cytometry was performed to investigate the C-VGB3 effect on apoptosis induction, as previously described, with some modifications. […]"}, "4T1 MCT cells": {"test_system": "4T1 MCT cells", "assay": "MTT assay, 4T1 MCT cells", "assay_type": "cell-based, murine", "details": "C-VGB3 0–1.81 μM, n = 3, read-out: IC50, proliferation", "description": "Figure 5 Suppression of 4T1 cell proliferation and metastasis by C-VGB3 through blockade of VEGFR2 signaling pathways. (A) MTT assay was performed to investigate C-VGB3 effect on the proliferation of 4T1 tumor cells in vitro. C-VGB3 was used at concentrations 0–1.81 μM in the presence (20 ng·mL^−1) or the absence of VEGF. The control cells were treated with no peptide. After 24 and 48 h, the absorbance was measured at 570 nm utilizing an ELISA plate reader (Space Fax 2100, Awareness, Westport, CT, USA). Error bars represent ± SEM. n = 3; * p = 0.0 2, ** p = 0.001, *** and ### p = 0.0001, **** and #### p < 0.0001, ns = not significant; one-way ANOVA. (B) To evaluate the mechanism by which C-VGB3 diminished cell proliferation and metastasis, Western blot analysis was performed for 4T1 cells. […] Error bars represent ± SEM. n = 3; * p = 0.02, ** p = 0.001, *** p = 0.0001, **** p < 0.0001, ns = not significant; one-way ANOVA.\n(§1) The effects of C-VGB3 and L-VGB3 on the cell survival of HUVE and 4T1 cell lines were investigated using the MTT assay, as previously described, with some modifications. […] After 24 and 48 h of incubation at 37 °C, the absorbance at 570 nm was recorded using an ELISA plate reader (Space Fax 2100, Awareness, Palm City, FL, USA). […]"}, "HUVECs [3]": {"test_system": "HUVECs", "assay": "MTT assay, HUVECs", "assay_type": "cell-based, human", "details": "VEGF 20 ng·mL^−1, C-VGB3 0–0.91 μM, n = 3, read-out: half-inhibitory concentration (IC50), cell viability", "description": "Figure 4 Inhibition of EC proliferation and tubulogenesis by C-VGB3 through abrogation of VEGFR2-mediated signaling pathways. (A) MTT assay was performed to investigate C-VGB3 effect on the proliferation of ECs. C-VGB3 (0–0.91 μM) was used with (20 ng·mL^−1) or without VEGF. The control cells were treated with no peptide. After 24 and 48 h, the absorbance was measured at 570 nm utilizing an ELISA plate reader (Space Fax 2100, Awareness, Westport, CT, USA). Error bars indicate ± SEM. n = 3; * p = 0.02, ** p = 0.001, *** and ### p = 0.0001, **** and #### p < 0.0001, ns = not significant; one-way ANOVA. (B) The anti-tubulogenesis effect of C-VGB3 in VEGF (20 ng·mL^−1)-induced HUVECs. Image analysis performed by Wimasis image analysis software is illustrated in the bottom panel. Error bars indicate ±SEM. n = 3; *** 0.0004 ≤ p ≤ 0.0001; unpaired Student’s t-test. To evaluate the mechanism by which C-VGB3 diminished cell proliferation and tube formation, Western blot analysis was performed for HUVECs. […]\nas §1"}}, "note": "Like-named read-outs stand apart in the source and are kept apart here. Bridge positions count the residues as written; N and C are the ends. Peptide text beside a SMILES is read from it.", "data": [{"smiles": "CC(C)C[C@@H]1NC(=O)CNC(=O)[C@H](CC(=O)O)NC(=O)[C@H](CC(=O)O)NC(=O)[C@@H]2CCCN2C(=O)[C@@H]2CCCN2C(=O)[C@H](CCCNC(=N)N)NC(=O)[C@@H](NC(=O)[C@@H](N)CCC(=O)O)CSSC[C@@H](C(=O)O)NC1=O", "note": "[C-VGB3] (H-ECRPPDDGLC-OH; disulfide 2-10)", "values": [{"measurement": "toxicity at this dosage (weight gain)", "setting": "[1]; three weeks", "result": "not toxic"}, {"measurement": "mice weight vs control groups", "setting": "[1]; two-way ANOVA", "result": "no significant differences"}, {"measurement": "level of apoptotic cells", "setting": "HUVECs [2]", "result": 56.62}, {"measurement": "IC50", "setting": "4T1 MCT cells; 24 h", "result": 560, "unit": "nM"}, {"measurement": "IC50", "setting": "4T1 MCT cells; 48 h", "result": 370, "unit": "nM"}, {"measurement": "IC50", "setting": "HUVECs [3]; 24 h", "result": 510, "unit": "nM"}, {"measurement": "IC50", "setting": "HUVECs [3]; 48 h", "result": 380, "unit": "nM"}]}]}
